Data on 6 molecules can be found in US8871788B2, “Substituted N-alkyl and N-acyl tetrahydro-isoquinoline derivatives, preparation and therapeutic use thereof” (Sanofi, priority 2010, dated 2014).

What is called Ki is the equilibrium dissociation constant of an inhibitor or competing ligand from its target.

The subject of one assay is Rats. The assay is described as follows: Forced-Swimming Test in Rats. It is filed as in vivo, rat. To be noted: p.o. twice, 0.1, 1, and 10 mg/kg, 6-min test. The procedure:
This example further illustrates the study of efficacy of the compounds of this invention as antidepressive agents in animal models.
The procedure was a modification of that described by Porsolt et al. (1977) Depression: a new animal model sensitive to antidepressant treatments. Nature 266:730-2. Rats were placed in individual glass cylinder (40 cm height, 18 cm diameter) containing water (22-25° C.) to a height of 15 cm. Two swimming sessions were conducted (a 15-min training session followed 24 h later by a 6-min test). After each swimming session, rats were placed under a heating lamp to avoid hypothermia. The duration of immobility was measured during the 6-min test. Example 1 of this invention was administered p.o. twice (15 min pre-test followed by first injection 24 h prior to […]) at three different dosages of 0.1, 1, and 10 mg/kg. The compound is active at all of these three dosage levels.

A further assay deals with Rat H3 (Rattus norvegicus, UniProt Q9QYN8). Kind of assay: Rat H3 radioligand binding (similar procedure). The settings on record: rat H3, similar procedure to rhesus binding. Here is the method: (§1) Rhesus H3 radioligand binding assay was performed using rhesus H3 receptor membranes (prepared as described above), [3H]-Methylhistamine (Perkin Elmer) and WGA SPA beads (wheat germ agglutinin scintillation proximity assay) beads (Amersham). The assay was performed in 96-well Opti-Plates (Packard). Each reaction contained 50 μl rhesus H3 membranes (20-30 μg total protein), 50 μl WGA SPA beads (0.1 μg) and 50 μl of 83Ci/mmol [^3H]-Methylhistamine (final concentration 2 nM) and 50 μl of tested compound. The compounds of this invention and/or vehicle were diluted with binding buffer from 10 mM DMSO stocks. Assay plates were sealed with TopSeal (Perkin Elmer) and mixed on shaker (25° C., 1 hour). Assay plates were read on TopCount scintillation counter (Packard). Results were analyzed by Hill transformation and Ki values were determined by Cheng-Prusoff equation. Similar procedure was employed to determine the binding data for rat.

For assay [1], the target named is T1, rhesus (Macacca Mulatta) H3 receptor (Macaca mulatta, UniProt Q865E1).
T1 construct: 445 amino acid H3 receptor; expressed in transfected cells; host or cells: Flp-In T-REx 293 Cell Line (Invitrogen), pcDNA5/FRT/TO, induced with tetracycline
The assay is described as follows: Rhesus H3 [3H]-Methylhistamine radioligand binding assay (SPA). On the set-up: species or system rhesus monkey (Macacca Mulatta). The settings on record: [3H]-Methylhistamine 2 nM, rhesus H3 membranes, Cheng-Prusoff. Here is the method:
(§2) Rhesus H3 membranes were prepared from the Flp-In T-REx 293 Cell Line (Invitrogen) stably transfected with pcDNA5/FRT/TO (Invitrogen) containing the rhesus monkey (Macacca Mulatta) 445 amino acid H3 receptor. (Genbank #AY231164). Stably transfected cultures were amplified in tissue culture flasks by standard tissue culture methods and induced to express rhesus H3 by exposure to 500 ng/ml tetracycline (Cellgro) for 24 hours. After induction, cells were dissociated from flasks utilizing Cell Stripper (Cellgro). Cells were centrifuged (1K×g, 5 min) and pellet frozen in an ethanol-dry ice bath to disrupt cell membranes. Frozen cell pellet was re-suspended in 5 mM HEPES (pH 7.4, Invitrogen) at 10 ml/1000 cm2 of harvested cells. The cell suspension was drawn through an 18 gauge needle (2-3×) followed by a 23 gauge needle (2-3×) to further disrupt cell membranes. The cell suspension was centrifuged (40K×g, 30 min). Cell membrane pellet was re-suspended in 5 mM HEPES (pH 7.4, Invitrogen) at a final protein concentration of 10 mg/ml. Rhesus H3 membranes were stored under liquid nitrogen prior to use in [3H]-Methylhistamine and GTPγS radioligand binding assays.
as §1

A further assay has as its target T2, rhesus H3 (Macaca mulatta, UniProt Q865E1).
T2 construct: 445 amino acid H3 receptor; expressed in transfected cells; host or cells: Flp-In T-REx 293 Cell Line (Invitrogen), pcDNA5/FRT/TO, induced with tetracycline
The assay is described as follows: GTPγS radioligand binding assay, rhesus H3 constitutive functional activity in cell membranes. It counts as biochemical, rhesus monkey (Macacca Mulatta). The settings on record: relative to basal levels. The procedure: as §2

Sequence of Rat H3 (Q9QYN8 whole entry): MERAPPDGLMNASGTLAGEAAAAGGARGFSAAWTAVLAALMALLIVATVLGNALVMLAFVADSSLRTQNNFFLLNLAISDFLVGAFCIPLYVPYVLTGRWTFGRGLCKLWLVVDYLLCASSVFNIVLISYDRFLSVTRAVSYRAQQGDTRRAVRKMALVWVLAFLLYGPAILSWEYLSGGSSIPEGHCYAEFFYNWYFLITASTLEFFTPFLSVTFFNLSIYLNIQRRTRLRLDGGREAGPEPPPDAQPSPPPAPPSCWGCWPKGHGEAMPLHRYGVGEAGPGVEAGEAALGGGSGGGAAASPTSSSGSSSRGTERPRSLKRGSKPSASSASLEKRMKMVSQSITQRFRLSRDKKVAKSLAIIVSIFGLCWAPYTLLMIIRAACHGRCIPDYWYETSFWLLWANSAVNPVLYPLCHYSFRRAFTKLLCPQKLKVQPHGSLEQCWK
T2 sequence (Q865E1 1-445): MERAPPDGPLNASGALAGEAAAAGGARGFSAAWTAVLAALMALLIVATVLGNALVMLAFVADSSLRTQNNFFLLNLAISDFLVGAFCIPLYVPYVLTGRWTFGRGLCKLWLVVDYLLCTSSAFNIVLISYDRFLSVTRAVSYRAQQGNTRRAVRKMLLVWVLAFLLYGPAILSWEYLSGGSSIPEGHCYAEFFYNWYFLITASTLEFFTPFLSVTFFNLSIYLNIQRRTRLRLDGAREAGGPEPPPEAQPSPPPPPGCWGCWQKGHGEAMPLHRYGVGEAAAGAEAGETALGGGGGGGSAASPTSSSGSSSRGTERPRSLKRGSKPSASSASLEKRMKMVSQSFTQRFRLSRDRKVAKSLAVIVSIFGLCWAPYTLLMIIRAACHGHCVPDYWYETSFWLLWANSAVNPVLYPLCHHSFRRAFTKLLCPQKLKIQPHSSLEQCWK
T1 sequence (Q865E1 1-445): as above

On to `C[C@H]1CCCN1[C@H]1CCN(c2ccc3c(c2)CCN(C2CCOCC2)C3=O)C1` [Example 1, 6-((2S,3′S)-2-Methyl-[1,3′]bipyrrolidinyl-1′-yl)-2-(tetrahydro-pyran-4-yl)-3,4-dihydro-2H-isoquinolin-1-one], for which the “activity in forced-swimming test (duration of immobility)” value in the assay with Rats was “active”. Besides, the figures for the inhibition constant Ki (on Rat H3; in assay [1]) were 3.6 nM and 1.2 nM, respectively.

For `CC(C)N1CCc2cc(N3CC[C@H](N4CCC[C@@H]4C)C3)ccc2C1` [Example 10, 2-Isopropyl-6-((2S,3′S)-2-methyl-[1,3′]bipyrrolidinyl-1′-yl)-1,2,3,4-tetrahydro-isoquinoline], the Ki on Rat H3 stood at 0.91 nM; in assay [1] it was 0.75 nM. On rhesus H3, the “GTPγS-35 ASSAY % Inverse Agonism” value is on record as −9.3%.

Turning to `C[C@H]1CCCN1[C@H]1CCN(c2ccc3c(c2)CCN(CC2CCCC2)C3)C1` [Example 7, 2-Cyclopentylmethyl-6-((2S,3′S)-2-methyl-[1,3′]bipyrrolidinyl-1′-yl)-1,2,3,4-tetrahydro-isoquinoline], the inhibitory constant (Ki) at Rat H3 was 0.19 nM; in assay [1], 1.2 nM. Moreover, the “GTPγS-35 ASSAY % Inverse Agonism” value at rhesus H3 is recorded as −6.9%.

On to `CCOC(=O)C1CCC(N2CCc3cc(N4CC[C@H](N5CCC[C@@H]5C)C4)ccc3C2)CC1` (stereo partly drawn) [Example 5, 4-[6-((2S,3′S)-2-Methyl-[1,3′]bipyrrolidinyl-1′-yl)-3,4-dihydro-1H-isoquinolin-2-yl]-cyclohexanecarboxylic acid ethyl ester], for which the inhibition constant (Ki) came out at 0.59 nM at Rat H3 and 0.57 nM in assay [1]. In addition, on rhesus H3, the “GTPγS-35 ASSAY % Inverse Agonism” value is listed as −40.0%.

In the case of `C[C@H]1CCCN1[C@H]1CCN(c2ccc3c(c2)CCN(C(=O)C2CCCCC2)C3)C1` [Example 18, Cyclohexyl-[6-((2S,3′S)-2-methyl-[1,3′]bipyrrolidinyl-1′-yl)-3,4-dihydro-1H-isoquinolin-2-yl]-methanone], the Ki on Rat H3 came out at 0.24 nM; in assay [1] it was 0.094 nM. In addition, the “GTPγS-35 ASSAY % Inverse Agonism” value on rhesus H3 is −10.7%.

Regarding `C[C@H]1CCCN1[C@H]1CCN(c2ccc3c(c2)CCN(C(=O)Nc2ccc(-c4ccccc4)cc2)C3)C1` [Example 26, 6-((2S,3′S)-2-Methyl-[1,3′]bipyrrolidinyl-1′-yl)-3,4-dihydro-1H-isoquinoline-2-carboxylic acid biphenyl-4-ylamide], the inhibition constant Ki at Rat H3 stood at 330 nM; in assay [1], 74 nM. In addition, on rhesus H3, the “GTPγS-35 ASSAY % Inverse Agonism” value was −16.1%.
